# Results published in patent US9617267B2, “Compounds and methods for kinase modulation, and indications therefor” (Plexxikon Inc., priority 2009, dated 2017).
# Key:
# [1] = target: CYP2C9 (Homo sapiens (Human), UniProt P11712); assay: CYP enzyme inhibition, fluorescent substrate (MFC)
# Summary of the method: (§1)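 Human CYP activity was followed by the fluorescence of the metabolized product of a known substrate, which falls as metabolism is inhibited. Compounds from 100 mM DMSO stocks were serially diluted 1:1 over 10 points in co-factor mix and preincubated 10 min at 37 °C. IC50 was fitted from signal versus concentration.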
# [2] = target: B-Raf V600E (Homo sapiens (Human), UniProt P15056, V600E); assay: B-Raf V600E kinase activity biochemical assay (AlphaScreen, biotin-MEK1 phosphorylation); details: for IC50: B-Raf V600E; for Biochemical activity ratio V600E/C: ratio of IC50 B-Raf V600E / c-Raf-1
# Summary of the method: (§2)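 Biotin-MEK1 phosphorylation measured after 45 min kinase reaction at RT with 100 μM ATP final; compounds tested at 8 points from 0.1 mM DMSO stock.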
# [3] = target: CYP3A4(BQ) (Homo sapiens (Human), UniProt P08684); assay: CYP enzyme inhibition, fluorescent substrate BQ
# Summary of the method: as §1
# [4] = target: CYP2D6 (Homo sapiens (Human), UniProt P10635); assay: CYP enzyme inhibition, fluorescent substrate (AMMC); format: in vitro ADME; details: read-out: Cyp IC50 2D6
# Summary of the method: (§3)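 Ten-point 1:1 compound dilutions in NADPH-regenerating cofactor mix, pre-incubated 10 min at 37 °C before enzyme/substrate addition: CYP1A2 0.5 pmol with 5 μM CEC, 15 min, 409 ex/460 em; CYP2D6 1.5 pmol with 1.5 μM AMMC, 30 min, 409 ex/530 em. IC50 from fluorescent product vs concentration.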
# [5] = Relative solubility by turbidity threshold concentration in aqueous buffers (pH 1.5, 4.5, 6.8, 7.4); format: physicochemical
# Summary of the method: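 Solubility class (high >250 μM, moderate 31.3–250 μM, low <31.3 μM) comes from the concentration where absorbance reaches a 0.01 threshold, averaged across 490/535/650 nm. Samples were compound dilutions from DMSO stock, 1 μL into 99 μL buffer at pH 1.5, 4.5, 6.8 or 7.4.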
# [6] = system: B-Raf; assay: B-Raf kinase activity biochemical assay (AlphaScreen, biotin-MEK1 phosphorylation); details: for Biochemical activity ratio B/V600E: ratio of IC50 B-Raf / B-Raf V600E; for Biochemical activity ratio B/C: ratio of IC50 B-Raf / c-Raf-1
# Summary of the method: as §2
# [7] = target: B-Raf (Homo sapiens (Human), UniProt P15056); assay: as above; details: B-Raf
# Summary of the method: as §2
# [8] = target: CYP1A2 (Homo sapiens (Human), UniProt P05177); assay: CYP enzyme inhibition, fluorescent substrate (CEC)
# Summary of the method: as §3
# [9] = target: CYP2C19 (Homo sapiens (Human), UniProt P33261); assay: CYP enzyme inhibition, fluorescent substrate (CEC)
# Summary of the method: as §1
# [10] = target: c-Raf-1 (Homo sapiens, UniProt P04049); assay: c-Raf-1 kinase activity biochemical assay (AlphaScreen, biotin-MEK1 phosphorylation)
# Summary of the method: as §2
# [11] = target: CYP3A4(BFC) (Homo sapiens (Human), UniProt P08684); assay: CYP enzyme inhibition, fluorescent substrate BFC
# Summary of the method: as §1
# [12] = target: CYP3A4 (Homo sapiens (Human), UniProt P08684); assay: CYP enzyme inhibition, fluorescent substrate BFC; details: human, CYP3A4 enzyme (BD Biosciences), probe BFC
# Summary of the method: as §1
# Chain of B-Raf V600E (P15056 whole entry V600E): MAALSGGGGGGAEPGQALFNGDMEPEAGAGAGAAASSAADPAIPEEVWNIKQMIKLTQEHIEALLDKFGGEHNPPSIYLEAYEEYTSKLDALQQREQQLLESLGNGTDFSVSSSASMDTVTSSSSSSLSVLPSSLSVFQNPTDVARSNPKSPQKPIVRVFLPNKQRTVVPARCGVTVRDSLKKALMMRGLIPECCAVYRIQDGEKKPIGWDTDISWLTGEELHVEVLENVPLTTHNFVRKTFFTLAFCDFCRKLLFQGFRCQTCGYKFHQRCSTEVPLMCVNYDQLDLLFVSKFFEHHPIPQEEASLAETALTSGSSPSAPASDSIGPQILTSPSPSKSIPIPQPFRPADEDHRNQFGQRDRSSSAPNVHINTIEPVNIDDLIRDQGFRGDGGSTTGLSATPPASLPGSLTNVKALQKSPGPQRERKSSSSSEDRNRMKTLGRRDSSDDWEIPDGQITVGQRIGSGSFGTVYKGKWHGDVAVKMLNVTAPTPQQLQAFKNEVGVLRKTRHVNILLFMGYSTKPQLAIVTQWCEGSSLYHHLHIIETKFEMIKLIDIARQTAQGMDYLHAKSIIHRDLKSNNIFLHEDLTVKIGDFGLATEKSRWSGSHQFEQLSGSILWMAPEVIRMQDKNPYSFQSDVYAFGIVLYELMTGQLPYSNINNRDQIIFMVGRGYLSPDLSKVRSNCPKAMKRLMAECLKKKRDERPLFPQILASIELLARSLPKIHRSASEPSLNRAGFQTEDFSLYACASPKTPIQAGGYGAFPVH
# Chain of CYP2C9 (P11712 whole entry): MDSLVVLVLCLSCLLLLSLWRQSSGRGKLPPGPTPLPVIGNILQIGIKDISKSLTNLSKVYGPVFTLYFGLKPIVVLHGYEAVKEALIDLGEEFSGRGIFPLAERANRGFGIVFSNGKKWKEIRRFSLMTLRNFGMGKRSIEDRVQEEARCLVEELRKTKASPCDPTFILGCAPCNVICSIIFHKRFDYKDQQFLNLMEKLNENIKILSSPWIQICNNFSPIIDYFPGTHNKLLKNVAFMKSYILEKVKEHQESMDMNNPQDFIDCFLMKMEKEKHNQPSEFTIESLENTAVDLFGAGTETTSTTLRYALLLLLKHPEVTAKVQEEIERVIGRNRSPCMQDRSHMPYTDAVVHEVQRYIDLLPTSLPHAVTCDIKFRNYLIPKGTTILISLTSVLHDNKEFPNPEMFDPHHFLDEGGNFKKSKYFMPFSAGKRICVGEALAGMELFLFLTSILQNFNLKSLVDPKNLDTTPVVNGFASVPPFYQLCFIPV
# Chain of c-Raf-1 (P04049 whole entry, looked up): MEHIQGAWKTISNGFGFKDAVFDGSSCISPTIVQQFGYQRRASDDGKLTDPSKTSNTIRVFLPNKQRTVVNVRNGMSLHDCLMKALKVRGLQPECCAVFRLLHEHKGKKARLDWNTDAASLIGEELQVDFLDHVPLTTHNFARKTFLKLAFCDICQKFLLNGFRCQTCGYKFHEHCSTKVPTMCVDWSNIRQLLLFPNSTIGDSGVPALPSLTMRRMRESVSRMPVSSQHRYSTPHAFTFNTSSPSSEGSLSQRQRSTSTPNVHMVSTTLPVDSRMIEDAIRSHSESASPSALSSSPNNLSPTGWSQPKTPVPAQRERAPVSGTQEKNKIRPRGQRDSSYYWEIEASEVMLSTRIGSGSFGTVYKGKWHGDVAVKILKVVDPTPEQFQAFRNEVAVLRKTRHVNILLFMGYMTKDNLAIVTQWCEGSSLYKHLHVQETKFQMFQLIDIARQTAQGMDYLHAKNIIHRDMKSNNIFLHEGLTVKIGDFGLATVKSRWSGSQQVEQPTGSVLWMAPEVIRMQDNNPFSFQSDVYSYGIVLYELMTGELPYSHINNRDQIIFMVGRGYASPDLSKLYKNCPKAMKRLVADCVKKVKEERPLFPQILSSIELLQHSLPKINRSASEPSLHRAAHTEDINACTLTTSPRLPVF
# Chain of CYP2D6 (P10635 whole entry): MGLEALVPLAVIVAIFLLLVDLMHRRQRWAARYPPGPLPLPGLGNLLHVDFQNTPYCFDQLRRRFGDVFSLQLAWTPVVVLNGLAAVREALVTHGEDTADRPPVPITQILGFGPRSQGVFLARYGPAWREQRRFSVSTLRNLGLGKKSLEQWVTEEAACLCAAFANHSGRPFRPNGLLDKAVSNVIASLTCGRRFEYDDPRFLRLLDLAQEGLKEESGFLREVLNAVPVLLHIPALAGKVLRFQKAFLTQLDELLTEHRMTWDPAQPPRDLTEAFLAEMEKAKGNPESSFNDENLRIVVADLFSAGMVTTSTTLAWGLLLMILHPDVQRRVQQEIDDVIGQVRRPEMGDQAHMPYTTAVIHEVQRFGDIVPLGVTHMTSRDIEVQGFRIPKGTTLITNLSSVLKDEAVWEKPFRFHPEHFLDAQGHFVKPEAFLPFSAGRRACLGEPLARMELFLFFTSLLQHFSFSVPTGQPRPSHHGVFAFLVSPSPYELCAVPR
# Chain of CYP2C19 (P33261 whole entry): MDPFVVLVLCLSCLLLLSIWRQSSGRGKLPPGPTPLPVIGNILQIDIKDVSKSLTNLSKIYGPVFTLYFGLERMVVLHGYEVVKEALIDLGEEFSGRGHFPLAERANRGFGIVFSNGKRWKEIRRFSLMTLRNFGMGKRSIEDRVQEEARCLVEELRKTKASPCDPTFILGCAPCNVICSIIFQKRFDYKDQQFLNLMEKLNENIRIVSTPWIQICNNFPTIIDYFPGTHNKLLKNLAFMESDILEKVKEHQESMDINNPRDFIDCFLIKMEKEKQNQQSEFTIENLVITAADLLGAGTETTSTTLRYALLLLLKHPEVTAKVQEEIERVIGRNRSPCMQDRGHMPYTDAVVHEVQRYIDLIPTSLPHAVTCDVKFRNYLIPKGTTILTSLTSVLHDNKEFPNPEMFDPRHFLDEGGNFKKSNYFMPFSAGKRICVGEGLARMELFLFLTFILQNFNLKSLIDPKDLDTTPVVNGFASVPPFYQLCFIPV
# Chain of CYP3A4(BQ) (P08684 whole entry): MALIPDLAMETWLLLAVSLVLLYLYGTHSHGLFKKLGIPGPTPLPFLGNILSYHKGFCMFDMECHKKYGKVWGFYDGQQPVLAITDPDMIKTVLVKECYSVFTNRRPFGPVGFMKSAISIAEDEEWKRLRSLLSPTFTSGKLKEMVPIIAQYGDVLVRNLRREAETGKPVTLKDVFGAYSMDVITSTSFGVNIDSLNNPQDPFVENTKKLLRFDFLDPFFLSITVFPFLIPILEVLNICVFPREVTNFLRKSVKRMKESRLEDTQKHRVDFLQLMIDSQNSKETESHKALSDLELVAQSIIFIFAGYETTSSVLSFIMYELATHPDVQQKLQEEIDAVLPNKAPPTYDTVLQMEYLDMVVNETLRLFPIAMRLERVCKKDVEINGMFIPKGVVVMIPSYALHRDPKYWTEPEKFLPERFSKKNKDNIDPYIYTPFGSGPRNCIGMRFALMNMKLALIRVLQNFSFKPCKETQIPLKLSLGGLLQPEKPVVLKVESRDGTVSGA
# Chain of B-Raf (Homo sapiens (Human), UniProt P15056) (P15056 whole entry): as the sequence (P15056 whole entry V600E) above, with E600V counted along it
# Chain of CYP1A2 (P05177 whole entry): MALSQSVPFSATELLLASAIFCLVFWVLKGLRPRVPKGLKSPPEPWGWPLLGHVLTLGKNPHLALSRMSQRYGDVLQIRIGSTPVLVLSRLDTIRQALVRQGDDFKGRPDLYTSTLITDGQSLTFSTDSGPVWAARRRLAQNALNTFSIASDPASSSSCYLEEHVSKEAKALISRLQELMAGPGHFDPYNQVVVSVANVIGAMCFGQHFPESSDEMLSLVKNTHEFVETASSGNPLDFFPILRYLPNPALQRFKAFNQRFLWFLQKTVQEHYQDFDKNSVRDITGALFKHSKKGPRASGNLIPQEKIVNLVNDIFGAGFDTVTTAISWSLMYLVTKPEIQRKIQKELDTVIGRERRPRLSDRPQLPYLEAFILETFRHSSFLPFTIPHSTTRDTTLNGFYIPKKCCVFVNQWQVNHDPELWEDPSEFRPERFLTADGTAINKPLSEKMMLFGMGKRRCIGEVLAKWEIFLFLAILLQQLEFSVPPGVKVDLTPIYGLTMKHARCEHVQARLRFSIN
# Chain of CYP3A4 (P08684 whole entry): as the sequence (P08684 whole entry) above
# Chain of CYP3A4(BFC) (P08684 whole entry): as above
IC50 [2] [µM],Biochemical activity ratio V600E/C [2],IC50 [3] [µM],Biochemical activity ratio B/V600E [6],Biochemical activity ratio B/C [6],IC50 [7] [µM],IC50 [10] [µM],Compound,other results
> 0.1,>10,> 10,0.1-10,0.1-10,< 0.1,< 0.1,"Cc1c(Cl)cnc2[nH]cc(C(=O)c3c(F)ccc(NS(=O)(=O)c4ccc(C(F)(F)F)cc4)c3F)c12 [P-2011, N-[3-(5-Chloro-4-methyl-1H-pyrrolo[2,3-b]pyridine-3-carbonyl)-2,4-difluoro-phenyl]-4-trifluoromethyl-benzene sulfonamide]","IC50 [1]: > 10 µM; IC50 [4]: 5 to 10 µM; turbidity threshold (L, M, H) 1.4 ([5]; pH 1.4 [sic] (method: SGF pH 1.5)): L (low solubility if the threshold concentration is <31.3 μM); turbidity threshold (L, M, H) 4.5 ([5]; pH 4.5 (SIF)): L (low solubility if the threshold concentration is <31.3 μM); turbidity threshold (L, M, H) 6.8 ([5]; pH 6.8 (SIF)): L (low solubility if the threshold concentration is <31.3 μM); turbidity threshold (L, M, H) 7.4 ([5]; pH 7.4 (HEPES)): L (low solubility if the threshold concentration is <31.3 μM); IC50 [8]: > 10 µM; IC50 [9]: < 5 µM; IC50 [11]: > 10 µM"
< 0.1,0.1-10,> 10,0.1-10,>10,> 0.1,< 0.1,"CCCS(=O)(=O)Nc1ccc(F)c(C(=O)c2c[nH]c3nccc(NC4CCCC4)c23)c1F [P-2012, Propane-1-sulfonic acid [3-(4-cyclopentylamino-1H-pyrrolo[2,3-b]pyridine-3-carbonyl)-2,4-difluoro-phenyl]-amide]","IC50 at 45 min ([1]; human, CYP2C9 enzyme (BD Biosciences), probe MFC): > 10 µM; IC50 at 30 min ([4]; human, CYP2D6 enzyme (BD Biosciences), probe AMMC): > 10 µM; IC50 at 15 min ([8]; human, CYP1A2 enzyme (BD Biosciences), probe CEC): > 10 µM; IC50 at 30 min ([9]; human, CYP2C19 enzyme (BD Biosciences), probe CEC): > 10 µM; IC50 at 30 min [12]: > 10 µM"
